Reference: PMC12668308, “A Novel Antimalarial Agent that Inhibits Protein Synthesis in Plasmodium falciparum” (Angewandte Chemie (International Ed. in English), 2025)

Tests used:
Assay in all cases: iSPP profiling, P. falciparum lysate
Assay type in all cases: binding, Plasmodium falciparum
[1] = system: dolichyl-diphosphooligosaccharide--protein glycotransferase (W7K3H0)
Description: (§1) P. falciparum NF54 lysates were extracted as described in ^[26^] . The parasite asynchronous culture was extracted once 3-5% parasitemia was reached. Saponin lysis was done as described in 2.2.10. Once the parasite pellet was obtained, 2.5 volumes of ice-cold lysis buffer (50 mM Tris/HCl pH 7.5 (Avantor), 5% glycerol (Sigma-Aldrich), 150 mM NaCl (Carl Roth), 1.5 mM MgCl2 (Sigma-Aldrich), 1 mM DTT (Carl Roth), 0.8% IGEPAL CA-630 (Sigma-Aldrich), 1X Halt Protease and Phosphatase Inhibitor-Cocktails EDTA-free (Thermo Fisher Scientific)) was added to the parasite pellet. The lysate solution was subjected to three cycles of flash freeze-thaw with liquid nitrogen and ddH2O at RT. The lysates were centrifuged at 20,000 g for 20 minutes at 4 °C. The soluble protein fraction (supernatant) was collected and the protein content was quantified using the BCA assay (Pierce™ BCA Protein Assay Kit, Thermo Fisher Scientific). The lysate was stored at -80 °C until further use.
(§2) The P. falciparum lysate was thawed on ice and diluted to 0.8 mg/mL. […] Subsequently, the samples were incubated at room temperature for 30 minutes using a rotating mixer. After distribution into a 96-well plate, the samples were treated with increasing concentrations of A.E.A. (v/v) ranging from 14% to 28% (14, 16, 18, 20, 22, 24, 26, and 28%). Following a 20-minute incubation at 37°C with shaking at 750 rpm, the samples were centrifuged at 4400 g for 35 minutes to remove precipitated proteins. The soluble fractions were then pooled in equal volumes into a single sample using the Bravo Automated Liquid Handling Platform. The pooled samples were subsequently prepared for LC-MS/MS analysis.
(§3) The raw LFQ-DIA intensity values of biological replicates across all conditions were normalized to the median abundance using Excel. The normalized values were then log2 transformed in Perseus (v2.0.10.0).^[58^] Missing values were imputed from a normal distribution (width 0.3, down shift 1.5), and p-values were obtained using a two-sample t-test over replicates with a permutation-based false discovery rate correction (FDR 0.05). Volcano plots were generated in RStudio using the EnhancedVolcano package (v. 1.20.0), ^[59^] plotting proteins by statistical significance (y-axis: –Log10 p-value) versus the magnitude of change (x-axis: log2 fold change of protein intensities for each compound condition relative to the vehicle control). The heatmap was generated in Perseus (v2.0.10.0). Dose-dependent curves were generated using normalized protein intensity values, expressed as a ratio to the vehicle control. Plots were created in GraphPad Prism (v8.3.0) using a nonlinear regression model.

[2] = system: FACT complex subunit (W7KAC4)
Description: as §1, §2, §3

[3] = system: Eukaryotic translation initiation factor 3 subunit A (W7KD62)
Description: as §1, §2, §3

[4] = system: PI3K/PI4K catalytic domain-containing protein (W7K7J6)
Description: as §1, §2, §3

[5] = system: 40S ribosomal protein S24 (W7KAD9)
Description: as §1, §2, §3

[6] = system: 60S ribosomal protein L18a (W7JPN9)
Description: as §1, §2, §3

[7] = system: AAA family ATPase (W7JWU4)
Description: as §1, §2, §3

[8] = system: 60S ribosomal protein L17 (W7KA36)
Description: as §1, §2, §3

[9] = system: Uncharacterized protein (W7KIB1)
Description: as §1, §2, §3

[10] = system: 60S ribosomal protein L4 (W7KB54)
Description: as §1, §2, §3

[11] = system: 40S ribosomal protein S4 (W7JT49)
Description: as §1, §2, §3

[12] = system: DNA primase large subunit (W7KFW7)
Description: as §1, §2, §3

Molecule CN1CCN(Cc2ccc(O)c(NC(=O)c3cccc(Oc4cc(C(F)(F)F)ccn4)c3)c2)CC1 [Compound 31, N-(2-hydroxy-5-((4-methylpiperazin-1-yl)methyl)phenyl)-3-((4-(trifluoromethyl)pyridin-2-yl)oxy)benzamide] has a log2FC ([1]; 10 µM) of 0.53, a log2FC ([1]; 50 µM) of 0.72 and a log2FC ([1]; 100 µM) of 0.44. The log2FC ([1]; 10^-2 µM) was 0.59, the log2FC ([2]; 10 µM) was 0.30 and the log2FC ([2]; 50 µM) was 0.55. The log2FC ([2]; 100 µM) was 0.41, the log2FC ([2]; 10^-2 µM) was 0.48 and the log2FC ([2]; 10^-3 µM) was 0.30. For the same molecule, the log2FC ([3]; 10 µM) was 0.35, the log2FC ([3]; 50 µM) was 0.45 and the log2FC ([3]; 100 µM) was 0.31. The log2FC ([3]; 10^-2 µM) was 0.30, the log2FC ([3]; 10^-3 µM) was 0.15 and the log2FC ([4]; 10 µM) was 0.30. It also gave a log2FC ([4]; 50 µM) of 0.44, a log2FC ([4]; 100 µM) of 0.41 and a log2FC ([4]; 10^-2 µM) of 0.42. It also gave a log2FC ([4]; 10^-3 µM) of 0.17, a log2FC ([5]; 10 µM) of 0.51 and a log2FC ([5]; 50 µM) of 0.70. For the same molecule, the log2FC ([5]; 100 µM) was 0.57, the log2FC ([5]; 10^-2 µM) was 0.44 and the log2FC ([5]; 10^-3 µM) was 0.27. The log2FC ([6]; 10 µM) was 0.72, the log2FC ([6]; 50 µM) was 1.09 and the log2FC ([6]; 100 µM) was 0.81. It also gave a log2FC ([6]; 10^-2 µM) of 0.75, a log2FC ([6]; 10^-3 µM) of 0.60 and a log2FC ([7]; 10 µM) of 0.33. It also gave a log2FC ([7]; 50 µM) of 0.46, a log2FC ([7]; 100 µM) of 0.35 and a log2FC ([7]; 10^-2 µM) of 0.29. For the same molecule, the log2FC ([7]; 10^-3 µM) was 0.18, the log2FC ([8]; 10 µM) was 0.35 and the log2FC ([8]; 50 µM) was 0.49. It also gave a log2FC ([8]; 100 µM) of 0.40, a log2FC ([8]; 10^-2 µM) of 0.30 and a log2FC ([8]; 10^-3 µM) of 0.17. For the same molecule, the log2FC ([9]; 10 µM) was 1.08, the log2FC ([9]; 50 µM) was 1.03 and the log2FC ([9]; 100 µM) was 0.88. For the same molecule, the log2FC ([9]; 10^-2 µM) was 1.16, the log2FC ([9]; 10^-3 µM) was 0.39 and the log2FC ([10]; 10 µM) was 0.49. For the same molecule, the log2FC ([10]; 50 µM) was 0.63, the log2FC ([10]; 100 µM) was 0.50 and the log2FC ([10]; 10^-2 µM) was 0.41. It also gave a log2FC ([10]; 10^-3 µM) of 0.21, a log2FC ([11]; 10 µM) of 0.53 and a log2FC ([11]; 50 µM) of 0.68. The log2FC ([11]; 100 µM) was 0.62, the log2FC ([11]; 10^-2 µM) was 0.39 and the log2FC ([11]; 10^-3 µM) was 0.19. For the same molecule, the log2FC ([12]; 10 µM) was 0.33, the log2FC ([12]; 50 µM) was 0.51 and the log2FC ([12]; 100 µM) was 0.41. For the same molecule, the log2FC ([12]; 10^-2 µM) was 0.50 and the log2FC ([12]; 10^-3 µM) was 0.39.
